How the values were obtained:
Format in all cases: biochemical
[1] = target: T1, recombinant human GBA (beta-glucocerebrosidase) (Homo sapiens, UniProt P04062); test: Beta-glucocerebrosidase (GBA, glucosylceramidase) assay (4-methylumbelliferyl-beta-D-pyranoside substrate, fluorescence)
T1 sequence (P04062 40-536): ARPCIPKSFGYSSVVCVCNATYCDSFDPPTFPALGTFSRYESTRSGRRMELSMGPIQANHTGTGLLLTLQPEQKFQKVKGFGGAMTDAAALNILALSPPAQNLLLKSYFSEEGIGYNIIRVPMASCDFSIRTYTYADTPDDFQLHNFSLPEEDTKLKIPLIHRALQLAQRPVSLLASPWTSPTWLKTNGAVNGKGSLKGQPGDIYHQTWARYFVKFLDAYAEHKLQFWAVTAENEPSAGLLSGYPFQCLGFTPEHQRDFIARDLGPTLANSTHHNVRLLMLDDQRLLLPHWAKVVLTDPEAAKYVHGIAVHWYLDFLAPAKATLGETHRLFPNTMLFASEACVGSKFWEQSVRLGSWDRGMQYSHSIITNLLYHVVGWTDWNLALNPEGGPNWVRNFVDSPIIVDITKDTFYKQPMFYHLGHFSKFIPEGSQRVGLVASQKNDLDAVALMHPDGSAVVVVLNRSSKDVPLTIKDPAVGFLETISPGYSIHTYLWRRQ
In short: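 Recombinant human GBA preincubated with compound dilutions 60 min at 37 °C, then 4-methylumbelliferyl-beta-D-pyranoside added for 60 min at 37 °C. Stopped at pH 10 (glycine/NaOH); fluorescence ex 365/em 440 nm. IC50 from 4-PL fit of inhibition relative to untreated enzyme.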

[2] = target: rat maltase (partially purified alpha-glucosidase from intestinal rat powder); test: Intestinal alpha-glucosidase assay, maltose substrate (Glucose GO Kit)
In short: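 Glucose release is the read-out: compounds at multiple dilutions are first held with partially purified rat intestinal alpha-glucosidase for 60 min at 37 °C, after which maltose or sucrose substrate reacts for 30 min at 37 °C before a 5 min 90 °C stop. IC50 comes from a four-parameter logistic fit.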

[3] = target: recombinant human GAA (acid alpha-glucosidase) (Homo sapiens, UniProt P10253); test: Acid alpha-glucosidase (GAA) assay (4-methylumbelliferyl-alpha-D-pyranoside substrate, fluorescence)
In short: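 Recombinant human enzyme preincubated 60 min at 37 °C with compound dilutions, then 4-methylumbelliferyl-alpha-D-pyranoside substrate added for 20 min at 37 °C. Stopped with glycine/NaOH pH 10; methylumbelliferone fluorescence (ex 365, em 440 nm) versus untreated enzyme; IC50 by 4-PL fit.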

[4] = target: T2, recombinant alpha-glucosidase II (murine full-length glucosidase II, alpha and beta subunits, Glu 2) (Mus musculus, UniProt Q8BHN3); test: Alpha-glucosidase II assay (4-methylumbelliferyl-alpha-D-pyranoside substrate, fluorescence); conditions: Glucosidase 2; read-out: Glu2 IC50
T2 construct: made in house; host or cells: HEK-293T cells transduced with BacMam viruses (75% alpha, 25% beta); protein harvested from culture supernatant
T2 sequence (O08795 15-521): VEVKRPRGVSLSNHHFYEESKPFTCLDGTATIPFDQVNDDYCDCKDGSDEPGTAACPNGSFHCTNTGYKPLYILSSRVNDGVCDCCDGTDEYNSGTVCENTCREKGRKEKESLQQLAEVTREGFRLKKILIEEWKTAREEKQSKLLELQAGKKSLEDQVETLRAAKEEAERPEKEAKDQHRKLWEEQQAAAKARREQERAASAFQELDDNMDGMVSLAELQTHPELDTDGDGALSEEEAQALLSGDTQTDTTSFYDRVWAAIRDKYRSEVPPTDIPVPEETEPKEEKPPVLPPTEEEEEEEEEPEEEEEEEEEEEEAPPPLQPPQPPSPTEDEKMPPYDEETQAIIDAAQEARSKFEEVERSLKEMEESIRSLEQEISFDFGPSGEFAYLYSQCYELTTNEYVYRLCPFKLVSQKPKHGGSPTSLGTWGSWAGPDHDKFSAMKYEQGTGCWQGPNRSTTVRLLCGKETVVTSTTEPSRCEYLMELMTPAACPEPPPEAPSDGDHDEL
T2 sequence (Q8BHN3 33-944): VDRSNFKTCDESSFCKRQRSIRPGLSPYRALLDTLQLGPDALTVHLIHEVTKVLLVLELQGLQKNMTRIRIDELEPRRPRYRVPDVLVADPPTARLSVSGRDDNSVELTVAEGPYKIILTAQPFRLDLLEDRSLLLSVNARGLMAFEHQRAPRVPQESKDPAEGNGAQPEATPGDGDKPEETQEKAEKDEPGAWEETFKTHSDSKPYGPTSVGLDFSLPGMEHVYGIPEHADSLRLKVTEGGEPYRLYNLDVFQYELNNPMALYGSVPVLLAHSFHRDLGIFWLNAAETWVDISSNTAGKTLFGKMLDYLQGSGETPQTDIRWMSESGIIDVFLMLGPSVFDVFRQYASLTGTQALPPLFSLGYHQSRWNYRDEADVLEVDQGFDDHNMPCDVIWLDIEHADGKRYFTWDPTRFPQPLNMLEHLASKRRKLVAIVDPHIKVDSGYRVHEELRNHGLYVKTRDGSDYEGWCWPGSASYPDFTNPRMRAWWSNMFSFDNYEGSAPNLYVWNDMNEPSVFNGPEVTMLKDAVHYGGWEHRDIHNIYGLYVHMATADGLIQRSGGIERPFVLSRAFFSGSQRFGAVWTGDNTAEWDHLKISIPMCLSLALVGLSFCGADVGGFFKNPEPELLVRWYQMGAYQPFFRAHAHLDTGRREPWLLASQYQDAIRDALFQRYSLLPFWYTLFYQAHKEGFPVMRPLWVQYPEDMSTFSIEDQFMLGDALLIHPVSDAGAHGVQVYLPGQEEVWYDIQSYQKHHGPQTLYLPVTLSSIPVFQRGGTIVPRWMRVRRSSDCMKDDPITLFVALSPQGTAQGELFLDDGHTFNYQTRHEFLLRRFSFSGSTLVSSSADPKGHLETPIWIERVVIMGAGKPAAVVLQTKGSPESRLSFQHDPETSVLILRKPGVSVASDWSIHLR

O=[N+]([O-])c1cc(Br)ccc1NCc1ccc(CN2C[C@H](O)[C@@H](O)[C@H](O)[C@H]2CO)cc1 [Compound 1030, (2R,3R,4R,5S)-1-[(4-{[(4-bromo-2-nitrophenyl)amino]methyl}phenyl)methyl]-2-(hydroxymethyl)piperidine-3,4,5-triol]
IC50 [1]: 32300 nM | IC50 [2]: < 1 nM | IC50 [3]: 135 nM | IC50 [4]: < 1 nM

Cc1cc(NCc2cccc(CN3C[C@H](O)[C@@H](O)[C@H](O)[C@H]3CO)c2)cc(N2CCOCC2)c1 [Compound 1031, (2R,3R,4R,5S)-2-(hydroxymethyl)-1-{[3-({[3-methyl-5-(morpholin-4-yl)phenyl]amino}methyl)phenyl]methyl}piperidine-3,4,5-triol]
IC50 [1]: > 100000 nM | IC50 [2]: 174 nM | IC50 [3]: 5220 nM | IC50 [4]: 10700 nM

Cc1cc(NCc2cccc(CN3C[C@H](O)[C@@H](O)[C@H](O)[C@H]3CO)c2)cc(C2=COCCO2)c1 [Compound 1032, (2R,3R,4R,5S)-1-{[3-({[3-(5,6-dihydro-1,4-dioxin-2-yl)-5-methylphenyl]amino}methyl)phenyl]methyl}-2-(hydroxymethyl)piperidine-3,4,5-triol]
IC50 [1]: > 100000 nM | IC50 [2]: 73 nM | IC50 [3]: 4170 nM | IC50 [4]: 47700 nM

Cc1cc(NCc2cccc(CN3C[C@H](O)[C@@H](O)[C@H](O)[C@H]3CO)c2)cc(-c2ccc[nH]2)c1 [Compound 1033, (2R,3R,4R,5S)-2-(hydroxymethyl)-1-{[3-({[3-methyl-5-(1H-pyrrol-2-yl)phenyl]amino}methyl)phenyl]methyl}piperidine-3,4,5-triol]
IC50 [1]: > 100000 nM | IC50 [2]: 37 nM | IC50 [3]: 5370 nM | IC50 [4]: > 100000 nM

Cc1cc(NCc2cccc(CN3C[C@H](O)[C@@H](O)[C@H](O)[C@H]3CO)c2)cc(-c2cccnn2)c1 [Compound 1034, (2R,3R,4R,5S)-2-(hydroxymethyl)-1-{[3-({[3-methyl-5-(pyridazin-3-yl)phenyl]amino}methyl)phenyl]methyl}piperidine-3,4,5-triol]
IC50 [1]: 91900 nM | IC50 [2]: 33 nM | IC50 [3]: 2710 nM | IC50 [4]: 10000 nM

CS(=O)(=O)c1cc(NCc2cccc(CN3C[C@H](O)[C@@H](O)[C@H](O)[C@H]3CO)c2)cc(N2CCOCC2)c1 [Compound 1036, (2R,3R,4R,5S)-2-(hydroxymethyl)-1-{[3-({[3-methanesulfonyl-5-(morpholin-4-yl)phenyl]amino}methyl)phenyl]methyl}piperidine-3,4,5-triol]
IC50 [1]: > 100000 nM | IC50 [2]: 77 nM | IC50 [3]: 2760 nM | IC50 [4]: 49500 nM

N#Cc1cc(NCc2cccc(CN3C[C@H](O)[C@@H](O)[C@H](O)[C@H]3CO)c2)cc(N2CCOCC2)c1 [Compound 1042, 3-(morpholin-4-yl)-5-{[(3-{[(2R,3R,4R,5S)-3,4,5-trihydroxy-2-(hydroxymethyl)piperidin-1-yl]methyl}phenyl)methyl]amino}benzonitrile]
IC50 [1]: > 100000 nM | IC50 [2]: 29 nM | IC50 [3]: 1830 nM | IC50 [4]: 8680 nM

OC[C@@H]1[C@@H](O)[C@H](O)[C@@H](O)CN1CCCCCCNc1cc(Cl)cc(-c2ncco2)c1 [Compound 1211, (2R,3R,4R,5S)-1-(6-{[3-chloro-5-(1,3-oxazol-2-yl)phenyl]amino}hexyl)-2-(hydroxymethyl)piperidine-3,4,5-triol]
IC50 [1]: 326 nM | IC50 [2]: 1 nM | IC50 [3]: 16 nM | IC50 [4]: 2 nM

OC[C@@H]1[C@@H](O)[C@H](O)[C@@H](O)CN1CCCCCCNc1cc(Cl)cc(-c2ncccn2)c1 [Compound 1212, (2R,3R,4R,5S)-1-(6-{[3-chloro-5-(pyrimidin-2-yl)phenyl]amino}hexyl)-2-(hydroxymethyl)piperidine-3,4,5-triol]
IC50 [1]: 386 nM | IC50 [2]: 2 nM | IC50 [3]: 47 nM | IC50 [4]: 5 nM

COc1cc(NCCCCCCN2C[C@H](O)[C@@H](O)[C@H](O)[C@H]2CO)cc(-c2ncco2)c1 [Compound 1216, (2R,3R,4R,5S)-2-(hydroxymethyl)-1-(6-{[3-methoxy-5-(1,3-oxazol-2-yl)phenyl]amino}hexyl)piperidine-3,4,5-triol]
IC50 [1]: 2140 nM | IC50 [2]: 8 nM | IC50 [3]: 37 nM | IC50 [4]: 2 nM

COc1cc(NCCCCCCN2C[C@H](O)[C@@H](O)[C@H](O)[C@H]2CO)cc(-c2ncccn2)c1 [Compound 1217, (2R,3R,4R,5S)-2-(hydroxymethyl)-1-(6-{[3-methoxy-5-(pyrimidin-2-yl)phenyl]amino}hexyl)piperidine-3,4,5-triol]
IC50 [1]: 981 nM | IC50 [2]: 11 nM | IC50 [3]: 10 nM | IC50 [4]: 11 nM

COc1cc(NCCCCCCN2C[C@H](O)[C@@H](O)[C@H](O)[C@H]2CO)cc(-c2ncc[nH]2)c1 [Compound 1219, (2R,3R,4R,5S)-2-(hydroxymethyl)-1-(6-{[3-(1H-imidazol-2-yl)-5-methoxyphenyl]amino}hexyl)piperidine-3,4,5-triol]
IC50 [1]: 8670 nM | IC50 [2]: 10 nM | IC50 [3]: 89 nM | IC50 [4]: 18 nM

COCCCCCN(CCCNc1ccc(N=[N+]=[N-])cc1[N+](=O)[O-])CCCN1C[C@H](O)[C@@H](O)[C@H](O)[C@H]1CO [Compound 1221, (2R,3R,4R,5S)-1-[3-({3-[(4-azido-2-nitrophenyl)amino]propyl}(5-methoxypentyl)amino)propyl]-2-(hydroxymethyl)piperidine-3,4,5-triol]
IC50 [1]: 57 nM | IC50 [2]: 233 nM | IC50 [3]: 4510 nM | IC50 [4]: 220 nM

NC(=O)CCN(CCNc1ccc(-c2ncccn2)cc1[N+](=O)[O-])CCN1C[C@H](O)[C@@H](O)[C@H](O)[C@H]1CO [Compound 1226, 3-[(2-{[2-nitro-4-(pyrimidin-2-yl)phenyl]amino}ethyl)({2-[(2R,3R,4R,5S)-3,4,5-trihydroxy-2-(hydroxymethyl)piperidin-1-yl]ethyl})amino]propanamide]
IC50 [1]: 3210 nM | IC50 [2]: 4630 nM | IC50 [3]: 20900 nM | IC50 [4]: 1350 nM

O=S(=O)(Nc1cc(-c2ncccn2)ccc1NCCCCCCN1C[C@H](O)[C@@H](O)[C@H](O)[C@H]1CO)C1CC1 [Compound 1227, N-[5-(pyrimidin-2-yl)-2-({6-[(2R,3R,4R,5S)-3,4,5-trihydroxy-2-(hydroxy-methyl)piperidin-1-yl]hexyl}amino)phenyl]cyclopropanesulfonamide]
IC50 [1]: 592 nM | IC50 [2]: 12 nM | IC50 [3]: 82 nM | IC50 [4]: 17 nM

OC[C@@H]1[C@@H](O)[C@H](O)[C@@H](O)CN1CCCCCCNc1ccc(-c2ncccn2)cc1Cl [Compound 1228, (2R,3R,4R,5S)-1-(6-{[2-chloro-4-(pyrimidin-2-yl)phenyl]amino}hexyl)-2-(hydroxymethyl)piperidine-3,4,5-triol]
IC50 [1]: 838 nM | IC50 [2]: 1 nM | IC50 [3]: 68 nM | IC50 [4]: 11 nM

OC[C@@H]1[C@@H](O)[C@H](O)[C@@H](O)CN1CCCCCCNc1ccc(-c2ncccn2)cc1F [Compound 1229, (2R,3R,4R,5S)-1-(6-{[2-fluoro-4-(pyrimidin-2-yl)phenyl]amino}hexyl)-2-(hydroxymethyl)piperidine-3,4,5-triol]
IC50 [1]: 959 nM | IC50 [2]: 24 nM | IC50 [3]: 81 nM | IC50 [4]: 37 nM

COc1cc(-c2ncccn2)ccc1NCCCCCCN1C[C@H](O)[C@@H](O)[C@H](O)[C@H]1CO [Compound 1231, (2R,3R,4R,5S)-2-(hydroxymethyl)-1-(6-{[2-methoxy-4-(pyrimidin-2-yl)phenyl]amino}hexyl)piperidine-3,4,5-triol]
IC50 [1]: 2110 nM | IC50 [2]: 30 nM | IC50 [3]: 91 nM | IC50 [4]: 30 nM

Cc1cc(-c2ncccn2)ccc1NCCCCCCN1C[C@H](O)[C@@H](O)[C@H](O)[C@H]1CO [Compound 1233, (2R,3R,4R,5S)-2-(hydroxymethyl)-1-(6-{[2-methyl-4-(pyrimidin-2-yl)phenyl]amino}hexyl)piperidine-3,4,5-triol]
IC50 [1]: 1310 nM | IC50 [2]: 32 nM | IC50 [3]: 1040 nM | IC50 [4]: 23 nM

[N-]=[N+]=Nc1ccc(NCCN(CCC(N)=O)CCN2C[C@H](O)[C@@H](O)[C@H](O)[C@H]2CO)c([N+](=O)[O-])c1 [Compound 1235]
IC50 [1]: 11400 nM | IC50 [2]: 7160 nM | IC50 [3]: 37800 nM | IC50 [4]: 530 nM

CN(C)Cc1ccc(NCCCCCCN2C[C@H](O)[C@@H](O)[C@H](O)[C@H]2CO)c(F)c1 [Compound 1236, (2R,3R,4R,5S)-1-[6-({4-[(dimethylamino)methyl]-2-fluorophenyl}amino)hexyl]-2-(hydroxymethyl)piperidine-3,4,5-triol]
IC50 [1]: 4630 nM | IC50 [2]: 36 nM | IC50 [3]: 556 nM | IC50 [4]: 39 nM
